Data taken from US8666671B2, “Method for determining drug-molecular combinations that modulate and enhance the therapeutic safety and efficacy of biological or pharmaceutical drugs” (Enhanced Pharmaceuticals, Inc., priority 2007, dated 2014).

System: rats
Experiment: In vivo response of rats (dP/dt, contractility of the heart) to Lopressor, dobutamine and Dob/Met
From the text: FIG. 2 presents empirical data of the in vivo response of rats to Lopressor® (the brand name for metoprolol used by Novartis Pharmaceuticals Corporation), dobutamine and the dobutamine/metoprolol specific combination ratio (Dob/Met);
The Lopressor® acts much like an inverse agonist or negative antagonist in that it produces a steep decrease in the animals' dP/dt, which is a measure of the contractility of the heart. Although in this experimental context metoprolol may be inhibiting the sympathetic tone of these animals due to the production of their endogenous catacholamines, it functions much like an inverse agonist or negative antagonist. The data is plotted as the dP/dt response versus the dosages of the drugs or combination (dobutamine with metoprolol, Dob/Met). The average beginning baseline response was about 7400 mmHg/sec. From this baseline, the Lopressor® decreased dP/dt to below 2000. For the agonist, dobutamine, the average response for the rats labeled 8-11 are plotted with the unfilled circles. At doses below about 50 micrograms/kg/min, the responses rise to a peak value of about 11000 mmHg/sec, but at further dosages these values decline to below 4000 mmHg/sec.
Examining the responses of metoprolol (Lopressor®) and dobutamine alone, one might think that in combination they would produce a more profound decline in the response to well below 2000 mmHg/sec. […] However, this method can predict these behaviors and is useful in determining other specific ratio combinations that produce a range of desirable responses in physiological systems.

Structure (SMILES)	dP/dt (contractility of the heart), decreased value (rats, in vivo, average beginning baseline about 7400 mmHg/sec, four individual rats)	dP/dt at further dosages (decline after peak) (rats 8-11, average response, doses above about 50 micrograms/kg/min)	dP/dt peak value (rats 8-11, average response, doses below about 50 micrograms/kg/min, baseline about 7400 mmHg/sec)
COCCc1ccc(OCC(O)CNC(C)C)cc1 (stereo not drawn) [Lopressor, metoprolol]	below 2000 mmHg/sec	–	–
CC(CCc1ccc(O)cc1)NCCc1ccc(O)c(O)c1 (stereo not drawn) [dobutamine]	–	below 4000 mmHg/sec	about 11000 mmHg/sec
